The source of these data is patent US5703109A, “Selective aromatase inhibiting compounds” (Oy; Orion-yhtyma, priority 1992, dated 1997).

The target of one data set is desmolase. As to the kind of experiment: Inhibition of desmolase (cholesterol side chain cleavage, SCC, activity). In kind it is biochemical. The settings on record: mitochondrial fraction from human placenta or bovine adrenals, 37° C., 30 min; read-out: DESMOLASE IC-50. On the procedure: Incubations were carried out in 1,5 ml Eppendorf plastic robes, and an Eppendoff shaker, centrifuge and incubator were used as a unit. […] Controls contained all the above substances but the enzyme preparation was inactivated prior to the incubation by the addition of 900 μl of methanol. The mitochondrial fraction (1 mg protein) from human placenta or bovine adrenals was used as a source of enzyme. After 30 min incubation at 37° C., the reaction was terminated by the addition of 900 μl of methanol; 1500 dpm of marker ^14 C-4-pregnenolone was added to each incubate and the robes were vigorously shaken. […] The column was washed with one ml of 75% methanol and then with 3 ml of 80% methanol The 80% methanol eluate was run into the counting vial and 10 ml of scintillation liquid was added. Radioactivity was counted using a double-label program on a liquid scintillation counter (LKB RackBeta).
In inhibition experiments, the substance (final concentration range from 1 to 1000 μM) was added into incubation mixture in a volume of 10-20 μl, usually as methanol or ethanol solution. The same volume of the solute was added into control incubation vial.

The target in the next data set is T1, human aromatase (Homo sapiens, UniProt P11511).
T1 construct: The enzyme preparation was used without further purification; from tissue; host or cells: human placenta, microsomal fraction (100000×g precipitate)
T1 sequence (P11511 1-503): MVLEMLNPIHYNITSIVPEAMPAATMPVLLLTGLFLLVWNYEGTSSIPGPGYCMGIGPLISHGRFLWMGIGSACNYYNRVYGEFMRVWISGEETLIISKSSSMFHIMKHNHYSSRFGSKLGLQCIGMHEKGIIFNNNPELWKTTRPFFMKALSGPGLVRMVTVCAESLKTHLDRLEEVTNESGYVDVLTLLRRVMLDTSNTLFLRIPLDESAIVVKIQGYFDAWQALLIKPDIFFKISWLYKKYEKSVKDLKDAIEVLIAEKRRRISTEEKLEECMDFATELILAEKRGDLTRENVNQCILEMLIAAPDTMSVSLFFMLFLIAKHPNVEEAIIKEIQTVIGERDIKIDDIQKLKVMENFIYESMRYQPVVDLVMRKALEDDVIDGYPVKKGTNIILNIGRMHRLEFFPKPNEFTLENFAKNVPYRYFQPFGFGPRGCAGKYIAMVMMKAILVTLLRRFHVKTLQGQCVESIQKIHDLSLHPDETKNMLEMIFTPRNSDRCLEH
As to the kind of experiment: Inhibition of human aromatase (3H2O release from 1,2[3H]-androstene-3,17-dione, human placenta microsomes). In kind it is biochemical. The settings on record: human placental microsomes, 37° C., 40 min; read-out: AROMATASE IC-50. On the procedure:
Human aromatase enzyme was used. The enzyme was prepared from human placenta, which is rich of the enzyme. Microsomal fraction (100000×g precipitate) was prepared by centrifugation. The enzyme preparation was used without further purification. Test compounds listed in Table 1 were added together with 100000 dpm of 1,2[^3 H]-androstene-3,17-dione and NADPH generating system. The concentrations of the test compounds were 0.001; 0.01; 0.1 and 1.0 mM. The incubation was carried out at 37° C. for 40 min. […] Radioactivity was counted by a liquid scintillation counter. Aromatase inhibition was evaluated by comparing the ^3 H2 O-radioactivity of inhibitor treated samples to controls containing no inhibitor. IC-50 values were calculated as concentrations which inhibited the enzyme activity 50%.

Data set [1] in a line: Acute toxicity, LD50, oral, in mice. The format is in vivo. The settings on record: young adult female NMRI mice. An excerpt: […]. The administration of the test compound was oral.

For `N#Cc1ccc(C(CC(O)c2ccc(F)cc2)n2cncn2)cc1` (centres unmarked) [Compound 6, 1-[1-(4-cyanophenyl)-3-(4-fluorophenyl)-3-hydroxypropyl]-1,2,4-triazole], the IC50 at desmolase is 380 µM; on human aromatase it was 0.3 µM.

On to `N#Cc1ccc(C(C(O)CCc2ccc(F)cc2)n2ccnc2)cc1` (single isomer, unassigned) [Compound 2, 1-[1-(4-cyanophenyl)-4-(4-fluorophenyl)-2-hydroxybutyl]-1H-imidazole, diastereomer a + d], for which the IC50 at desmolase worked out at 49 µM; on human aromatase, 0.18 µM.

In the case of `N#Cc1ccc(C(C(O)Cc2ccc(F)cc2)n2cncn2)cc1` (single isomer, unassigned) [Compound 4, 1-[1-(4-cyanophenyl)-3-(4-fluorophenyl)-2-hydroxypropyl]-1,2,4-triazole, diastereomer a + d], in data set [1] (highest dose tested 400 mg/kg), the “Acute toxicity (LD50 determination): tolerability of the highest dose tested” value is given as “well tolerated”. Moreover, the “Acute toxicity (LD50 determination): adverse effects” value in data set [1] (up to 400 mg/kg) is “No adverse effects were seen”. Also, the IC50 at desmolase was greater than 1000 µM; at human aromatase, 0.26 µM.

Turning to `N#Cc1ccc(C(=CCCc2ccc(F)cc2)n2cncn2)cc1` (single isomer, unassigned; isomer b) [Compound 3, 1-[1-(4-cyanophenyl)-4-(4-fluorophenyl)-1-butenyl]-1,2,4-triazole, isomer b], at desmolase, the IC50 worked out at 300 µM.

For `N#Cc1ccc(C(=CCc2ccc(F)cc2)n2cncn2)cc1` (single isomer, unassigned; isomer b) [Compound 8, 1-[1-(4-cyanophenyl)-3-(4-fluorophenyl)-1-propenyl]-1,2,4-triazole, isomer b], the IC50 at desmolase turned out to be 165 µM.

Take `N#Cc1ccc(C(CCCc2ccc(F)cc2)n2ccnc2)cc1` (centres unmarked) [Compound 1, 1-[1-(4-cyanophenyl)-4-(4-fluorophenyl)butyl]-1H-imidazole]: the IC50 on desmolase amounted to 17 µM.

Regarding `N#Cc1ccc(C(O)(CCc2ccc(F)cc2)c2cncs2)cc1` (centres unmarked) [Compound 9, 5-[1-(4-cyanophenyl)-3-(4-fluorophenyl)-1-hydroxypropyl]thiazole], the IC50 was 300 µM on desmolase and 0.28 µM on human aromatase.

Consider `N#Cc1ccc(C(C(=O)CCc2ccc(F)cc2)n2cncn2)cc1` (centres unmarked) [Compound 7, 1-[1-(-4-cyanophenyl)-4-(4-fluorophenyl)-2-oxobutyl]-1,2,4-triazole], for which the IC50 on desmolase stood at 172 µM; at human aromatase it was 0.9 µM.

Take `N#Cc1ccc(C(C(O)CCc2ccc(F)cc2)n2cncn2)cc1` (single isomer, unassigned) [Compound 5, 1-[1-(4-cyanophenyl)-4-(4-fluorophenyl)-2-hydroxybutyl]-1,2,4-triazole, diastereomer a + d]: the IC50 on desmolase was greater than 1000 µM; on human aromatase it was 0.95 µM.
